Assay type in all cases: biochemical
The target of one experiment is T1, collagenase (MMP-1) (Homo sapiens, UniProt P03956).
T1 sequence (P03956 100-469): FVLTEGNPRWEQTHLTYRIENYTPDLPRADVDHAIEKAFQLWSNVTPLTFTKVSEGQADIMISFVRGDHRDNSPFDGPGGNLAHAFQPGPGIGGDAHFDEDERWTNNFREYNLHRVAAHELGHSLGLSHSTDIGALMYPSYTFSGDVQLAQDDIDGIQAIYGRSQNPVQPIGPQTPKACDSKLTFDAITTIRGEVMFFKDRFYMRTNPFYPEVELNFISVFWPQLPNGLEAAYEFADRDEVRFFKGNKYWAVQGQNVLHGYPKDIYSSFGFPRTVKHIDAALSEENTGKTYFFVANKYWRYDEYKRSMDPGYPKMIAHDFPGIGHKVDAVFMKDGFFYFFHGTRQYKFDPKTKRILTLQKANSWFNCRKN
Description: MMP-1 enzyme inhibition assay (coumarin-labelled peptide substrate). The following applies: for IC50: read-out: IC50 MMP1. The method, then:
(§1) Compounds of the invention were tested to assess their activities as inhibitors of MMP-1, MMP-2, MMP-9, MMP-14, MMP-12 and TACE. MMP-9 Assay Protocol
(§2) Compounds of the invention were tested for inhibitory activity against 92 kDa gelatinase (MMP-9) in an assay using a coumarin-labeled peptide substrate, (7-methoxycoumarin-4-yl)acetyl-Pro-Leu-Gly-Leu-(3-[2,4-dinitrophenyl]-L-2,3diaminopropionyl)-Ala-Arg-NH2 (McaPLGLDpaAR) (Knight et al, FEBS Lett. 1992; 263-266).
(§3) Stock solutions were made up as follows: Assay Butter: 100 mM Tris-HCl pH 7.6 containing 100 mM NaCl, 10 mM CaCl2, and 0.05% Brij 35.
(§4) Substrate: 0.4 mM McaPLGLDpaAR (from Bachem) (0.437 mg/ml) stock solution in 100% DMSO (stored at −20° C.). Dilute to 8 μM in assay butter.
(§5) Enzyme: Recombinant human 92 kDa gelatinase (MMP-9; APMA (4-aminophenyl mercuric acetate)-activated if necessary) appropriately diluted in assay butter.
(§6) Test Compounds were prepared initially as 10 mM compound solution in 100% DMSO, diluted to 1 mM in 100% DMSO, then serially diluted 3-fold in 100% DMSO across columns 1-10 of a 96-well microtitre plate Assay concentration range, 100 μM (column 1) to 5.1 nM (column 10).
(§7) The assay was performed in a total volume of 100 μL per well in 96-well microtitre plates. Activated enzyme (20 μL) was added to the wells followed by 20 μL of assay butter. Appropriate concentrations of test compounds dissolved in 10 μL of DMSO were then added followed by 50 μL of McaPLGLDpaAR (8 μM, prepared by dilution of DMSO stock in assay butter). For each as say ten concentrations of test compound were examined in duplicate. Control wells lack either enzyme or test compound. The reactions were incubated at 37° C. for 2 hours. The fluorescence at 405 nm was measured immediately with an SLT Fluostar fluorometer (SL T Labinstruments GmbH, Grödig, Austria) using 320 nm excitation, without stopping the reaction.
(§8) The effect of the test compound was determined from the dose response curve generated by the 10 duplicate concentrations of inhibitor. The IC50 (the concentration of compound required to give a 50% decrease in enzyme activity) was obtained by fitting data to the equation, Y=a+((b−a)/(1+(c/X)^d)). (Y=inhibition achieved for a particular dose; X=the dose in nM; a=minimum y or zero % inhibition; b=maximum y or 100% inhibition; c=is the IC50; d=is the slope). The result was rounded to one significant figure.
Compounds of the invention were tested for inhibitory activity against collagenase (MMP-1) in an assay using a coumarin-labelled peptide substrate, (7-methoxycoumarin-4-yl)acetyl-Pro-Leu-Gly-Leu-(3-[2,4-dinitrophenyl]-L-2,3diaminopropionyl)-Ala-Arg-NH2 (Mca PLGLDpaAR) (Knight et al, 1992, above). The protocol for this assay was as described for the MMP-9 assay above.

The next experiment deals with T2, gelatinase A (MMP-2) (Homo sapiens, UniProt P08253).
T2 sequence (P08253 110-660): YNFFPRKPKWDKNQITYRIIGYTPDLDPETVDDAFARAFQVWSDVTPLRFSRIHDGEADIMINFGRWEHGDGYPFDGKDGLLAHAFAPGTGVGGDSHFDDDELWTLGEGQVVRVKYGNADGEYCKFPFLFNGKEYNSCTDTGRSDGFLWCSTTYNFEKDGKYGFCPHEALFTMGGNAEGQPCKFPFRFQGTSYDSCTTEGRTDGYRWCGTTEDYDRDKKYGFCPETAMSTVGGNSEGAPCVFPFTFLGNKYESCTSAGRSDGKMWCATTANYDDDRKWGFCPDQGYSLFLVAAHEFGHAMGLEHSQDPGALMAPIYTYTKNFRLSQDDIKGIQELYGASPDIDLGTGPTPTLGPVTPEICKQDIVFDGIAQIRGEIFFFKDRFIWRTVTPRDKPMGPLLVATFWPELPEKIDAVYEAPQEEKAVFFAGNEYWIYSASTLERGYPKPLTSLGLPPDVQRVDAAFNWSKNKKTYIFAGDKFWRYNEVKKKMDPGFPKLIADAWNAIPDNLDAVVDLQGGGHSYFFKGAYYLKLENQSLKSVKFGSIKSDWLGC
Nature of the experiment: MMP-2 enzyme inhibition assay (coumarin-labelled peptide substrate). The following applies: read-out: IC50 MMP2. The method, then:
Compounds of the invention were tested to assess their activities as inhibitors of MMP-1, MMP-2, MMP-9, MMP-14, MMP-12 and TACE. MMP-9 Assay Protocol […]
as §3
Substrate: 0.4 mM McaPLGLDpaAR (from Bachem) (0.437 mg/ml) stock solution in 100% DMSO (stored at −20° C.). Dilute to 8 μM in assay butter. […]
as §6, §7, §8
Compounds of the invention were tested for inhibitory activity against gelatinase A (MMP-2) in an assay using a coumarin-labelled peptide substrate, (7-methoxycoumarin-4-yl)acetyl-Pro-Leu-Gly-Leu-(3-[2,4-dinitrophenyl]-L-2,3diaminopropionyl)-Ala-Arg-NH2 (Mca PLGLDpaAR) (Knight et al, 1992, above). The protocol for this assay was as described for the MMP-9 assay above.

In another experiment the target is metalloelastase (MMP-12) (Homo sapiens, UniProt P39900). Description: MMP-12 enzyme inhibition assay (coumarin-labelled peptide substrate). The following applies: read-out: IC50 MMP12. The method, then: as §1, §2, §3, §4, §5, §6, §7, §8
Compounds of the invention were tested for inhibitory activity against metalloelastase (MMP-12) in an assay using a coumarin-labelled peptide substrate, (7-methoxycoumarin-4-yl)acetyl-Pro-Leu-Gly-Leu-(3-[2,4-dinitrophenyl]-L-2,3-diaminopropionyl)-Ala-Arg-NH2 (McaPLGLDpaAR) (Knight et al, 1992, above). The protocol for this assay was as described for the MMP-9 assay above.

Where [1] appears, read: read-out: percentage inhibition MMP1.

Bounds are passed on as bounds.

Sequence of metalloelastase (MMP-12) (P39900 106-470): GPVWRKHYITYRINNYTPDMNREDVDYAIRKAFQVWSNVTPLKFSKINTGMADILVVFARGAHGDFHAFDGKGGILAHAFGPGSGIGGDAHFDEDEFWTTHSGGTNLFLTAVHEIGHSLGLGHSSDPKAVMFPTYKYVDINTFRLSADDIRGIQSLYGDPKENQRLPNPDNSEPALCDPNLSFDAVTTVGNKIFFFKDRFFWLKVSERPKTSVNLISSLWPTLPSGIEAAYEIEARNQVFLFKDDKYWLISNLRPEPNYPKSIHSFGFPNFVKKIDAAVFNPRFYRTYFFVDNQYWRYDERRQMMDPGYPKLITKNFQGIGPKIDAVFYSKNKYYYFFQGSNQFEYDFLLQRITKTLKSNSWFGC

By inhibition is commonly meant the drop in the measured response relative to a control, in per cent. One may read the IC50 as the midpoint of a concentration-inhibition curve. Take `CC(C)(C)OC(=O)N1CCC[C@@H]1[C@@H](CS(=O)(=O)N1CCc2cc(Cl)c(Cl)cc2C1)N(O)C=O` (racemic) [Example 44, tert-butyl (2RS)-2-{(1SR)-2-[(6,7-dichloro-3,4-dihydro-isoquinolin-2(1H)-yl)sulfonyl]-1-[formyl(hydroxy)amino]ethyl}pyrrolidine-1-carboxylate]: at collagenase (MMP-1) (setting [1]), the inhibition at 5 µM is 9%. The IC50 at gelatinase A (MMP-2) is 91 nM; at metalloelastase (MMP-12) it was 7 nM.

For the compound `O=CN(O)C(CCc1ccccc1)CS(=O)(=O)N1CCc2ccccc2C1` (stereo not shown) [Example 1, N-{1-[(3,4-dihydroisoquinolin-2(1H)-ylsulfonyl)methyl]-3-phenylpropyl}-N-hydroxyformamide], the IC50 is above 5000 nM at collagenase (MMP-1), 95 nM at gelatinase A (MMP-2) and 27 nM on metalloelastase (MMP-12).

For `CC1(C)OC[C@H](C(CS(=O)(=O)N2CCc3ccccc3C2)N(O)C=O)O1` (stereo partly drawn) [Example 2, N-{2-(3,4-dihydroisoquinolin-2(1H)-ylsulfonyl)-1-[(4S)-2,2-dimethyl-1,3-dioxolan-4-yl]ethyl}-N-hydroxyformamide], the values for the IC50 on collagenase (MMP-1), at gelatinase A (MMP-2) and on metalloelastase (MMP-12) were above 5000 nM, 530 nM and 14 nM, respectively.

For the compound `CCCCCC(CS(=O)(=O)N1CCc2ccccc2C1)N(O)C=O` (stereo not shown) [Example 3, N-{1-[(3,4-dihydroisoquinolin-2(1H)-ylsulfonyl)methyl]hexyl}-N-hydroxyformamide], the inhibition at 5 µM on collagenase (MMP-1) (setting [1]) amounted to 31%. Further, the IC50 at gelatinase A (MMP-2) was 676 nM; on metalloelastase (MMP-12) it was 14 nM.

`O=CN(O)C(CS(=O)(=O)N1CCc2ccccc2C1)C1CC1` (stereo not shown) [Example 4, N-[1-cyclopropyl-2-(3,4-dihydroisoquinolin-2(1H)-ylsulfonyl)ethyl]-N-hydroxyformamide]: the inhibition at 5 µM on collagenase (MMP-1) (setting [1]) amounted to 19%. The IC50 at gelatinase A (MMP-2) was 653 nM; at metalloelastase (MMP-12), 65 nM.

As to `O=CN(O)C(CCc1ccccc1)CS(=O)(=O)N1Cc2ccccc2C1` (stereo not shown) [Example 6, N-{1-[(1,3-dihydro-2H-isoindol-2-ylsulfonyl)methyl]-3-phenylpropyl}-N-hydroxyformamide], the IC50 was above 5000 nM at collagenase (MMP-1), 323 nM at gelatinase A (MMP-2) and 9 nM on metalloelastase (MMP-12).

On to `O=CN(O)C(CS(=O)(=O)N1CCc2ccccc2C1)c1cncnc1` (stereo not shown) [Example 9, N-[2-(3,4-dihydroisoquinolin-2(1H)-ylsulfonyl)-1-pyrimidin-5-ylethyl]-N-hydroxyformamide], for which the inhibition at 5 µM at collagenase (MMP-1) (setting [1]) is 29%. Further, the IC50 at gelatinase A (MMP-2) is above 5000 nM; at metalloelastase (MMP-12) it was 49 nM.

Regarding `O=CN(O)C(CS(=O)(=O)N1CCc2ccccc2C1)c1cccnc1` (stereo not shown) [Example 10, N-[2-(3,4-dihydroisoquinolin-2(1H)-ylsulfonyl)-1-pyridin-3-ylethyl]-N-hydroxyformamide], on collagenase (MMP-1) (setting [1]), the inhibition at 5 µM was found to be 8%. For the same compound, the values for the IC50 on gelatinase A (MMP-2) and at metalloelastase (MMP-12) were above 5000 nM and 13 nM, respectively.

Regarding `COc1cc2c(cc1OC)CN(S(=O)(=O)CC(CCc1ccccc1)N(O)C=O)CC2` (stereo not shown) [Example 12, N-(1-{[(6,7-dimethoxy-3,4-dihydroisoquinolin-2(1H)-yl)sulfonyl]methyl}-3-phenylpropyl)-N-hydroxyformamide], the inhibition at 5 µM on collagenase (MMP-1) (setting [1]) stood at 0%. Also, the IC50 was above 5000 nM at gelatinase A (MMP-2) and 92 nM at metalloelastase (MMP-12).

As for `COc1ccc(C(CS(=O)(=O)N2CCc3ccccc3C2)N(O)C=O)cn1` (stereo not shown) [Example 13, N-[2-(3,4-dihydroisoquinolin-2(1H)-ylsulfonyl)-1-(6-methoxypyridin-3-yl)ethyl]-N-hydroxyformamide], the inhibition at 5 µM on collagenase (MMP-1) (setting [1]) is 16%. Moreover, the IC50 was above 5000 nM at gelatinase A (MMP-2) and 10 nM at metalloelastase (MMP-12).

Consider `COc1cc2c(cc1OC)CN(S(=O)(=O)CC([C@H]1COC(C)(C)O1)N(O)C=O)CC2` (stereo partly drawn) [Example 14, N-{2-[(6,7-dimethoxy-3,4-dihydroisoquinolin-2(1H)-yl)sulfonyl]-1-[(4S)-2,2-dimethyl-1,3-dioxolan-4-yl]ethyl}-N-hydroxyformamide], for which the inhibition at 5 µM at collagenase (MMP-1) (setting [1]) is 0%. Further, the IC50 on gelatinase A (MMP-2) was above 5000 nM; on metalloelastase (MMP-12) it was 41 nM.

Turning to `CC1(C)OC[C@H](C(CS(=O)(=O)N2Cc3ccccc3C2)N(O)C=O)O1` (stereo partly drawn) [Example 16, N-{2-(1,3-dihydro-2H-isoindol-2-ylsulfonyl)-1-[(4S)-2,2-dimethyl-1,3-dioxolan-4-yl]ethyl}-N-hydroxyformamide], the inhibition at 0.1 µM at collagenase (MMP-1) (@ 0.1 μM, read-out: percentage inhibition MMP1) amounted to 5%. Further, the inhibition at 5 µM at collagenase (MMP-1) (setting [1]) came to 74%. For the same compound, the IC50 was 78 nM at gelatinase A (MMP-2) and 12 nM at metalloelastase (MMP-12).

`CC(C)c1ccc2c(c1)CCN(S(=O)(=O)CC([C@H]1COC(C)(C)O1)N(O)C=O)C2` (stereo partly drawn) [Example 18, N-{1-[(4S)-2,2-dimethyl-1,3-dioxolan-4-yl]-2-[(6-isopropyl-3,4-dihydroisoquinolin-2(1H)-yl)sulfonyl]ethyl}-N-hydroxyformamide]: the inhibition at 5 µM on collagenase (MMP-1) (setting [1]) was 9%. The IC50 at gelatinase A (MMP-2) came out at 5 nM; on metalloelastase (MMP-12), 1.4 nM.

Turning to `CC1(C)OC[C@H](C(CS(=O)(=O)N2CCc3ccc(Cl)cc3C2)N(O)C=O)O1` (stereo partly drawn) [Example 19, N-{2-[(7-chloro-3,4-dihydroisoquinolin-2(1H)-yl)sulfonyl]-1-[(4S)-2,2-dimethyl-1,3-dioxolan-4-yl]ethyl}-N-hydroxyformamide], on collagenase (MMP-1) (setting [1]), the inhibition at 5 µM was 45%. Further, the IC50 is 10 nM at gelatinase A (MMP-2) and 6 nM at metalloelastase (MMP-12).

In the case of `O=CN(O)C(CS(=O)(=O)N1CCc2ccc(Cl)cc2C1)C1CCCC1` (stereo not shown) [Example 21, N-{2-[(7-chloro-3,4-dihydroisoquinolin-2(1H)-yl)sulfonyl]-1-cyclopentylethyl}-N-hydroxyformamide], the inhibition at 5 µM at collagenase (MMP-1) (setting [1]) was found to be 20%. The figures for the IC50 at gelatinase A (MMP-2) and at metalloelastase (MMP-12) were 103 nM and 19 nM, respectively.

These data come from patent publication US7879876B2, “Sulfonamide derivatives and use thereof for the modulation of metalloproteinases” (Merck Serono SA, priority 2005, dated 2011).
